Assay results published in ChEMBL document CHEMBL4828731, “Synthesis, structure-activity relationships and molecular docking studies of phenyldiazenyl sulfonamides as aromatase inhibitors” (Eur J Med Chem, 2021).
The source made the active and inactive calls. No cut-off for these calls is given here.

Tests used:
Aromatase [1] = target: T1, Aromatase (Homo sapiens, UniProt P11511); assay: Inhibition of human aromatase assessed as reduction in fluorescence intensity using 7-methoxy-4-trifluoromethyl coumarin as a substrate at 1 uM by fluorimetric assay relative to control
T1 sequence (P11511 whole entry): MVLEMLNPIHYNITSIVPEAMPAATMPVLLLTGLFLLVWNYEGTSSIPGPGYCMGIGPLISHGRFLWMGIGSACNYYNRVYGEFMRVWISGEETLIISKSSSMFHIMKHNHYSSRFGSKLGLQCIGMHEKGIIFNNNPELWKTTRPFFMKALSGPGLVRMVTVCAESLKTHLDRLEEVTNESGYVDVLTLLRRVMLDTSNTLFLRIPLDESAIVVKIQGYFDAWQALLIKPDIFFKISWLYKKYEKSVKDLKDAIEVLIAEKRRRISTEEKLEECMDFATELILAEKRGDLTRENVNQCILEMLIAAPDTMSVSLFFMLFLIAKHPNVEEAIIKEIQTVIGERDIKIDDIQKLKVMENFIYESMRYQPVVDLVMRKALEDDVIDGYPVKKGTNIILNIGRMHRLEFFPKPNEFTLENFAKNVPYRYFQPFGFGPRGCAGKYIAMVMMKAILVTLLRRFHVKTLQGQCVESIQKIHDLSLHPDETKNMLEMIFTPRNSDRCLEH

Aromatase [2] = target: T1, Aromatase; assay: Inhibition of human aromatase assessed as reduction in fluorescence intensity using 7-methoxy-4-trifluoromethyl coumarin as a substrate by fluorimetric assay
MCF7 [3] = assay: Cytotoxicity against human MCF7 cells assessed as reduction in cell metabolic activity up to 50 uM incubated for 24 hrs by MTT assay relative to control; format: functional; set-up: scale not given: the % may be the effect or the level left; conditions: dose microM <=50
MCF7 [4] = assay: Cytotoxicity against human MCF7 cells assessed as release of LDH up to 250 uM measured after 24 hrs by lactate dehydrogenase assay; format: functional, cell-based; conditions: dose microM <=250, time 24.0 hrs
MCF7 [5] = assay: Cytotoxicity against human MCF7 cells assessed as reduction in cell metabolic activity up to 50 uM incubated for 48 hrs by MTT assay relative to control; format: functional; set-up: scale not given: the % may be the effect or the level left; conditions: dose microM <=50
MCF7 [6] = assay: Cytotoxicity against human MCF7 cells assessed as reduction in cell metabolic activity incubated for 72 hrs by MTT assay; format: functional, cell-based
HFF-1 [7] = assay: Cytotoxicity against human HFF-1 clls assessed as reduction in cell viability at 10 to 100 uM measured after 72 hrs by MTT assay; format: cell-based; conditions: hff-1, 72 h, dose 10-100 µM
[8] = Selectivity index, ratio of IC50 for cytotoxicity against human HFF-1 cells to IC50 for cytotoxicity against human MCF7 cells measured after 24 hrs by MTT assay; format: toxicity, cell-based; conditions: HFF-1 cells and MCF7 cells, read-out: Selectivity Index
Aromatase [9] = target: T1, Aromatase; assay: Potency index, ratio of resveratrol IC50 to test compound IC50 for Inhibition of human aromatase assessed as reduction in fluorescence intensity using 7-methoxy-4-trifluoromethyl coumarin as a substrate by fluorimetric assay
MCF7 [10] = assay: Cytotoxicity against human MCF7 cells assessed as reduction in cell metabolic activity at 100 uM incubated for 24 hrs by MTT assay relative to control; format: functional; set-up: scale not given: the % may be the effect or the level left
MCF7 [11] = assay: Cytotoxicity against human MCF7 cells assessed as fold increase in release of LDH at 50 uM measured after 24 hrs by lactate dehydrogenase assay relative to control; format: functional
MCF7 [12] = assay: Induction of apoptosis in human MCF7 cells assessed as cells in apoptotic stage at 100 uM measured after 24 hrs by Annexin V-APC/PI staining based flow cytometry analysis (Rvb= 7.3%); format: functional
MCF7 [13] = assay: Induction of apoptosis in human MCF7 cells assessed as cells in apoptotic stage at 250 uM measured after 24 hrs by Annexin V-APC/PI staining based flow cytometry analysis (Rvb= 7.3%); format: functional
MCF7 [14] = assay: Induction of apoptosis in human MCF7 cells assessed as increase in necrotic cells at 10 to 250 uM measured after 24 hrs by Annexin V-APC/PI staining based flow cytometry analysis relative to control; format: functional, cell-based; conditions: dose 10-250 µM
MCF7 [15] = assay: Cell cycle arrest in human MCF7 cells assessed as reduction in cells in S phase measured after 72 hrs by propidium iodide staining based flow cytometry analysis; format: functional
MCF7 [16] = assay: Cell cycle arrest in human MCF7 cells assessed as increase in cells in G1 phase measured after 72 hrs by propidium iodide staining based flow cytometry analysis; format: functional
HFF-1 [17] = assay: Cytotoxicity against human HFF-1 clls assessed as reduction in cell viability at 250 uM measured after 72 hrs by MTT assay; format: cell-based; conditions: hff-1, 72 h
[18] = Selectivity index, ratio of IC50 for cytotoxicity against human HFF-1 cells to IC50 for cytotoxicity against human MCF7 cells measured after 48 hrs by MTT assay; format: toxicity, cell-based; conditions: HFF-1 cells and MCF7 cells, read-out: Selectivity Index
[19] = Selectivity index, ratio of IC50 for cytotoxicity against human HFF-1 cells to IC50 for cytotoxicity against human MCF7 cells measured after 72 hrs by MTT assay; format: toxicity, cell-based; conditions: HFF-1 cells and MCF7 cells, read-out: Selectivity Index
Aromatase [20] = target: T1, Aromatase; assay: Inhibition of human aromatase in T47D measured after 24 hrs by ELISA
MCF7 [21] = assay: Cytotoxicity against human MCF7 cells assessed as reduction in cell metabolic activity at 250 uM incubated for 72 hrs by MTT assay relative to control; format: functional; set-up: scale not given: the % may be the effect or the level left

Structure (SMILES): O=S(=O)(Cc1ccccc1)Nc1ccc(/N=N/c2ccccc2)cc1
- inhibition at 1 µM (Aromatase [1]): < 20%

Structure (SMILES): N#Cc1ccc(S(=O)(=O)Nc2ccc(/N=N/c3ccccc3)cc2)c(Cl)c1
- inhibition at 1 µM (Aromatase [1]): < 20%

Structure (SMILES): CS(=O)(=O)Nc1ccc(/N=N/c2ccccc2)cc1
- inhibition at 1 µM (Aromatase [1]): < 20%

Structure (SMILES): Cc1ccc(S(=O)(=O)Nc2ccc(/N=N/c3ccccc3)cc2)cc1[N+](=O)[O-]
- inhibition at 1 µM (Aromatase [1]): < 20%

Structure (SMILES): O=S(=O)(Nc1ccc(/N=N/c2ccccc2)cc1)c1ccccc1
- inhibition at 1 µM (Aromatase [1]): < 20%

Structure (SMILES): CC(=O)Nc1ccc(S(=O)(=O)Nc2ccc(/N=N/c3ccccc3)cc2)cc1
- inhibition at 1 µM (Aromatase [1]): < 20%

Structure (SMILES): O=S(=O)(Nc1ccc(/N=N/c2ccccc2)cc1)c1ccc(Cl)s1
- inhibition at 1 µM (Aromatase [1]): < 20%

Structure (SMILES): O=S(=O)(c1ccccc1)N(Cc1nc2ccccc2[nH]1)c1ccc(/N=N/c2ccccc2)cc1
- inhibition at 1 µM (Aromatase [1]): < 20%

Structure (SMILES): N#Cc1ccc(S(=O)(=O)Nc2ccc(/N=N/c3ccccc3)cc2)cc1
- IC50 (Aromatase [2]): 7.9 µM
- Activity (MCF7 [3]): 20%
- Activity (MCF7 [4]): inactive
- Activity (MCF7 [5]): 60%
- Activity (MCF7 [6]): Dose-Dependent Effect
- Activity (HFF-1 [7]): Non-Toxic
- selectivity ratio at 24 h [8]: > 1.6

Structure (SMILES): COc1ccc(S(=O)(=O)Nc2ccc(/N=N/c3ccccc3)cc2)c(OC)c1
- IC50 (Aromatase [2]): 1.6 µM
- Ratio IC50 (Aromatase [9]): 50
- Activity (MCF7 [3]): 20%
- Activity (MCF7 [10]): 47.4%
- fold change (FC) (MCF7 [11]): 2.5
- Activity (MCF7 [12]): 19.7%
- Activity (MCF7 [13]): 14.7%
- Activity (MCF7 [14]): Active
- Activity (MCF7 [5]): 60%
- Activity (MCF7 [6]): Dose-Dependent Effect
- Activity (MCF7 [15]): Dose-Dependent Effect
- Activity (MCF7 [16]): Dose-Dependent Effect
- Activity (HFF-1 [7]): Non-Toxic
- Activity (HFF-1 [17]): Toxic
- selectivity ratio at 24 h [8]: 2.12
- selectivity ratio at 48 h [18]: 3.19
- selectivity ratio at 72 h [19]: 3.74

Structure (SMILES): Oc1ccc(/C=C/c2cc(O)cc(O)c2)cc1 [RESVERATROL]
- Activity (MCF7 [10]): 78.2%
- Activity (MCF7 [4]): inactive
- Activity (MCF7 [6]): Dose-Dependent Effect

Structure (SMILES): COc1cnc(NS(=O)(=O)c2ccc(N/C=C\C(=O)c3cc4ccccc4oc3=O)cc2)nc1
- IC50 (Aromatase [20]): 6 µM

Structure (SMILES): CCS(=O)(=O)Nc1ccc(/N=N/c2ccccc2)cc1
- inhibition at 1 µM (Aromatase [1]): < 20%

Structure (SMILES): Cc1ccc(S(=O)(=O)N(Cc2nc3ccccc3[nH]2)c2ccc(/N=N/c3ccccc3)cc2)cc1[N+](=O)[O-]
- inhibition at 1 µM (Aromatase [1]): < 20%

Structure (SMILES): COc1ccc(S(=O)(=O)N(Cc2nc3ccccc3[nH]2)c2ccc(/N=N/c3ccccc3)cc2)c(OC)c1
- inhibition at 1 µM (Aromatase [1]): 50%
- IC50 (Aromatase [2]): 5.7 µM
- Ratio IC50 (Aromatase [9]): 14
- Activity (MCF7 [3]): 20%
- Activity (MCF7 [4]): inactive
- Activity (MCF7 [5]): 60%
- Activity (MCF7 [21]): 134.2%
- Activity (HFF-1 [7]): Non-Toxic
- selectivity ratio at 24 h [8]: > 2.25

Structure (SMILES): O=[N+]([O-])c1cccc(S(=O)(=O)Nc2ccc(/N=N/c3ccccc3)cc2)c1
- inhibition at 1 µM (Aromatase [1]): < 20%
